Laboratory results taken from patent publication US20060117411A1, “Enhancing plant pathogen resistance via increasing BiP levels” (priority 1998, published 2006).

Key:
[1] = tested on: α-amylase synthesis in tobacco protoplasts; assay: Transient expression in tobacco protoplasts (pNL200), α-amylase activity; type: cell-based, Nicotiana tabacum; conditions: tunicamycin 20 μg/mL, 20 hr
Source text: We have established a model system based on the comparison of protein biosynthesis in the cytosol and on the rough ER using transient expression. A plasmid was constructed (pNL200, FIG. 12A) containing two genes, one encoding the secreted barley α-amylase (Rogers, 1985) and the other encoding the cytosolic marker β-glucuronidase (GUS; Jefferson et al., 1987). α-Amylase was used to measure secretory protein biosynthesis, and GUS was used to control for transfection efficiency and overall cell viability. We compared cells under normal culture conditions with cells subjected to ER stress by treatment with tunicamycin. […] Since α-amylase is not glycosylated, tunicamycin should not have a direct effect on this protein. The tunicamycin effect is protein-specific and not dependent on the promoter used. […]
Tobacco leaf protoplasts (from transformed or untransformed plants) were prepared, and electroporation experiments were performed as previously described (Denecke and Vitale, 1995), with minor modifications to the electroporation conditions. […] After 24 or 48 hr, the protoplasts were analysed by enzymatic assay or by protein gel blotting. […]
α-Amylase activity was measured with a kit (Megazyme, Australia). […] The absorbance was measured at a wavelength of 405 nm, with a microtiter plate reader against a blank containing stop buffer alone. […]

BiP mRNA = assay: SA spraying of tobacco plants, Northern blot of BiP mRNA; type: in vivo, Nicotiana tabacum
Method: It has been shown that SA is involved in the induction of PR genes (reviewed by Malamy and Klessig, 1992) and that this signal molecule also induces the expression of ER chaperones (Denecke et al, 1995). We wanted to investigate whether ER chaperone induction is a consequence of the high synthesis rates of PR genes and used BiP as a model system. Tobacco plants were sprayed with SA (5 mM) and the exact timing of the SA-mediated induction of PR-gene PRI was compared to that of BiP. PR1 was chosen as a representative marker for SA-mediated induction of PR genes as its response to SA is faster and more pronounced than that of acidic chitinase, basic chitinase and basic β-1.3 glucanase (Vidal et al, 1997). […] In contrast SA-induced transcription of PR1 starts only after 6-8 hours and continues to accumulate upto 16 hours after treatment. At this time-point, BiP mRNA levels start to decrease again. We have shown previously that PR1 continuous to accumulate until 48 hours after SA treatment using the same experimental system (Vidal et al, 1997). […] BiP protein levels were also shown to increase (FIG. 7B), with a significant increase noticeable after 4-6 hours of induction.
To investigate further similarities and differences in the SA-mediated induction of BiP and PR genes, we tested if the presence of light is required for the induction. The rationale for this experiment was derived from the observation that SA inhibits catalase, resulting in an increase of active oxygen species in the plant, which would then induce PR genes such as PR1 (Chen et al, 1993). Despite the fact that the inhibition of catalase activity alone is not the key route by which PR1 is induced during SA-treatment (Chamnongpol et al, 1996), a cooperative interaction of SA and H2O2 might lead to the strong induction of PR1 (Leon et al, 1995, Chen et al, 1995). […] Tobacco plants were thus sprayed with SA (5 mM) and incubated in the presence and absence of light for 6 and 16 hours. […] The data also confirm that BiP mRNA levels increase transiently and a significant decrease in mRNA levels is detectable after 16 hours of treatment (see also FIG. 7).
We have shown that the SA-induced expression of PR1 is inhibited in a concentration dependent fashion by the presence of Erwinia carotovora culture filtrate containing cell wall-degrading enzymes (Vidal et al, 1997). […] Total RNA was extracted and the expression of chaperones was determined in relation to PR1.
In example 6 we have shown that the UPR-induced BiP gene expression is additive to the cell wall-degrading enzyme (CDE) response. […] After floating of the leaves for 2.5 h on this medium, RNA was extracted and BiP gene expression was analysed by Northern blotting. […]

BiP protein levels = assay: SA spraying of tobacco plants, protein gel blot of BiP; type: in vivo, Nicotiana tabacum; conditions: sprayed with SA 5 mM
Method: It has been shown that SA is involved in the induction of PR genes (reviewed by Malamy and Klessig, 1992) and that this signal molecule also induces the expression of ER chaperones (Denecke et al, 1995). We wanted to investigate whether ER chaperone induction is a consequence of the high synthesis rates of PR genes and used BiP as a model system. Tobacco plants were sprayed with SA (5 mM) and the exact timing of the SA-mediated induction of PR-gene PRI was compared to that of BiP. PR1 was chosen as a representative marker for SA-mediated induction of PR genes as its response to SA is faster and more pronounced than that of acidic chitinase, basic chitinase and basic β-1.3 glucanase (Vidal et al, 1997). […] In contrast SA-induced transcription of PR1 starts only after 6-8 hours and continues to accumulate upto 16 hours after treatment. At this time-point, BiP mRNA levels start to decrease again. […]
Fully expanded leaves were collected and quickly frozen in liquid nitrogen. […] Protein concentrations were determined using Bio-Rad protein assay reagent
Proteins in SDS-polyacrylamide gels were transferred onto a nitrocellulose membrane and then blocked with PBS, 0.5% Tween 20, and 5% milk powder for 1 hr. […] Detection of antigen-antibody complexes was performed with enhanced chemiluminescence (ECL, Amersham Corp), and the images were recorded on film.

Row | Compound | total α-amylase activity in the cell suspension [1] | BiP transcription in SA-treated leaves floated on MS medium with tunicamycin (BiP mRNA; 5 mM SA 12 h, then tunicamycin 20 μg/mL 2.5 h) | accumulation of BiP mRNA transcripts during SA-treatment in the absence of light (BiP mRNA; SA 5 mM, 6 and 16 hours, dark vs light) | time at which BiP mRNA levels reach a plateau (BiP mRNA; sprayed with SA 5 mM) [h] | time of treatment after which BiP mRNA levels are induced (BiP mRNA; sprayed with SA 5 mM) [h] | time of induction after which a significant increase of BiP protein levels is noticeable (BiP protein levels) [h]
1 | tunicamycin | greatly reduced | further induction | – | – | – | –
2 | O=C(O)c1ccccc1O [SA, Salicylic Acid] | – | – | hardly any reduction | 4 | 2 | 4 to 6
